Results taken from patent US4612372A, “Tylosin derivatives” (Sanraku Incorporated, priority 1984, dated 1986).

Experiments:
[1] = Stability against liver homogenate of mice; format: in vitro ADME, mice (ICB strain); details: for remaining at 1 h: pH 7.2, mouse liver homogenate supernatant, 37° C., contact 60 minutes, read-out: Residual Intact Compound Rate
Procedure: Liver from ICB strain mice was homogenated with a potter's homogenizer (3000 rpm, 10 minutes) together with a 5-fold amount of 0.1M phosphate buffer (pH 7.2). To the supernatant was added 1 ml of a 500 μg/ml (10% methanolic water) of a specimen. After the mixture was reacted at 37° C. for 1 hour, the reaction mixture was heated at 100° C. for 3 minutes. Then, 1 ml of 0.1M phosphate buffer (pH 9.0) was added thereto and extracted with 1 ml of ethyl acetate. The organic layer was subjected to silica gel thin layer chromatograph y (chloroform/methanol/ammonia=15/1.2/0.1). By a chromatographic scanner (283 nm), a formation ratio of the unchanged substance to the hydrolysate was determined and the formation of the hydrolysate was expressed by percentage.

resistant bacteria [2] = details: drug-resistant bacteria
[3] = tested on: infectious diseases of mice; experiment: Experiment of treatment for infectious diseases of mice; format: in vivo
esterase = experiment: Hydrolysis by esterase in vivo (particularly in liver)
[4] = tested on: pathogenic microorganisms; experiment: Antibacterial activity in general (in words); format: cell-based
resistant bacteria [5] = details: U.S. Pat. No. 4,205,163; cited from earlier work

Structure (SMILES) | remaining at 1 h [1] [%] | further results
CCC1OC(=O)CC(O)C(C)C(OC2OC(C)C(OC3CC(C)(O)C(OC(=O)Cc4ccccc4)C(C)O3)C(N(C)C)C2O)C(CC=O)CC(C)C(=O)C=CC(C)=CC1COC1OC(C)C(O)C(OC)C1OC (stereo not shown) [Control 1, reference compound] | – | stability against liver homogenate (in words) ([1]; liver homogenate of mice): good result; antibacterial activity against resistant bacteria (in words) (resistant bacteria [2]): poor in antibacterial activity against resistant bacteria
CCC1OC(=O)CC(O)C(C)C(OC2OC(C)C(OC3CC(C)(O)C(OC(=O)Cc4ccc(SC)cc4)C(C)O3)C(N(C)C)C2O)C(CC=O)CC(C)C(=O)C=CC(C)=CC1COC1OC(C)C(O)C(OC)C1OC (stereo not shown) [Compound 2, 4"-O-(4-Methylthiophenylacetyl)tylosin] | 84 | –
CCC1OC(=O)CC(O)C(C)C(OC2OC(C)C(OC3CC(C)(O)C(OC(=O)Cc4ccccc4F)C(C)O3)C(N(C)C)C2O)C(CC=O)CC(C)C(=O)C=CC(C)=CC1COC1OC(C)C(O)C(OC)C1OC (stereo not shown) [Compound 9, 4"-O-(2-Fluorophenylacetyl)tylosin] | 95 | –
CCC1OC(=O)CC(O)C(C)C(OC2OC(C)C(OC3CC(C)(O)C(OC(=O)Cc4ccc(C(C)=O)cc4)C(C)O3)C(N(C)C)C2O)C(CC=O)CC(C)C(=O)C=CC(C)=CC1COC1OC(C)C(O)C(OC)C1OC (stereo not shown) [Compound 8, 4"-O-(4-Acetylphenylacetyl)tylosin] | < 95 | –
CCC1OC(=O)CC(O)C(C)C(OC2OC(C)C(OC3CC(C)(O)C(OC(=O)Cc4ccc(C(C)=O)cc4)C(C)O3)C(N(C)C)C2O)C(CC=O)CC(C)C(=O)C=CC(C)=CC1C (stereo not shown) [Compound 3] | 95 | –
CCC1OC(=O)CC(O)C(C)C(OC2OC(C)C(OC3CC(C)(O)C(OC(=O)Cc4ccc(S(C)(=O)=O)cc4)C(C)O3)C(N(C)C)C2O)C(CC=O)CC(C)C(=O)C=CC(C)=CC1COC1OC(C)C(O)C(OC)C1OC (stereo not shown) [Compound 1, 4"-O-(4-Methylsulfonylphenylacetyl)tylosin] | 89 | –
CCC1OC(=O)CC(OC(C)=O)C(C)C(OC2OC(C)C(OC3CC(C)(O)C(OC(=O)Cc4ccc(C(C)=O)cc4)C(C)O3)C(N(C)C)C2O)C(CC=O)CC(C)C(=O)C=CC(C)=CC1COC1OC(C)C(O)C(OC)C1OC (stereo not shown) [Compound 10, 3-O-acetyl-4"-O-(4-acetylphenylacetyl)tylosin] | < 95 | –
CCC1OC(=O)CC(O)C(C)C(OC2OC(C)C(OC3CC(C)(O)C(OS(=O)(=O)Cc4ccc(F)cc4)C(C)O3)C(N(C)C)C2O)C(CC=O)CC(C)C(=O)C=CC(C)=CC1COC1OC(C)C(O)C(OC)C1OC (stereo not shown) [Compound 7, 4"-O-(4-Fluorobenzylsulfonyl)tylosin] | < 95 | –
CCC1OC(=O)CC(O)C(C)C(OC2OC(C)C(OC3CC(C)(O)C(OC(=O)Cc4ccc(OC)cc4)C(C)O3)C(N(C)C)C2O)C(CC=O)CC(C)C(=O)C=CC(C)=CC1COC1OC(C)C(O)C(OC)C1OC (stereo not shown) [Compound 5, 4"-O-(4-Methoxyphenylacetyl)tylosin] | 94 | –
CCC1OC(=O)CC(O)C(C)C(OC2OC(C)C(OC3CC(C)(O)C(OC(=O)Cc4ccccc4)C(C)O3)C(N(C)C)C2O)C(CC=O)CC(C)C(=O)C=CC(C)=CC1COC1OC(C)C(O)C(OC)C1OC (stereo not shown) [Control 3, reference compound] | < 95 | –
CCC1OC(=O)CC(O)C(C)C(OC2OC(C)C(OC3CC(C)(O)C(OC(=O)Cc4ccc(C(=O)c5ccccc5)cc4)C(C)O3)C(N(C)C)C2O)C(CC=O)CC(C)C(=O)C=CC(C)=CC1COC1OC(C)C(O)C(OC)C1OC (stereo not shown) [Compound 4, 4"-O-(4-Benzoylphenylacetyl)tylosin] | 82 | –
CCC1OC(=O)CC(O)C(C)C(OC2OC(C)C(OC3CC(C)(O)C(OC(=O)Cc4ccc(F)cc4)C(C)O3)C(N(C)C)C2O)C(CC=O)CC(C)C(=O)C=CC(C)=CC1COC1OC(C)C(O)C(OC)C1OC (stereo not shown) [Compound 6, 4"-O-(4-Fluorophenylacetyl)tylosin] | 95 | –
CCC1OC(=O)CC(O)C(C)C(OC2OC(C)C(OC3CC(C)(O)C(OC(=O)CSc4ccccc4)C(C)O3)C(N(C)C)C2O)C(CC=O)CC(C)C(=O)C=CC(C)=CC1COC1OC(C)C(O)C(OC)C1OC (stereo not shown) [Control 2, 4"-O-phenylthioacetyltylosin] | 0 | result in experiment of treatment for infectious diseases of mice (in words) [3]: merely unsatisfactory results; hydrolysis by esterase (in words) (esterase): completely hydrolyzed by esterase; antibacterial activity (in words) [4]: high antibacterial activity in vitro; effectiveness against macrolide-resistant bacteria (in words) (resistant bacteria [5]): most effective tylosin derivative against macrolide-resistant bacteria
CCC1OC(=O)CC(O)C(C)C(OC2OC(C)C(OC3CC(C)(O)C(OS(=O)(=O)Cc4ccccc4)C(C)O3)C(N(C)C)C2O)C(CC=O)CC(C)C(=O)C=CC(C)=CC1COC1OC(C)C(O)C(OC)C1OC (stereo not shown) [Control 4, reference compound] | 0 | –
